PubChem BioAssay AID2060337 (Molecular Pharmacology Branch, DTP, NCI, 2025)

Tested on: 832693-133-R-J1-PDC multi-cell spheroids, viability
Test: Anticancer human tumor 832693-133-R-J1-PDC patient-derived head and neck squamous carcinoma cell line growth inhibition [IpAb]
Conditions: for IC50: curve of first compound; for viability, T/C: stronger effect = lower value
How it was run: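 Spheroids of 60% malignant cells, 25% HUVEC and 15% MSC were exposed to targeted agents combined with ipatasertib or abemaciclib. Doses started at or near clinical Cmax (10 microM when unknown) and fell in half-log steps.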
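Note: spheroids exposed to the drugs for one week before the viability readout.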
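Throughout, for viability, T/C: 100% = DMSO vehicle control wells.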

CC(=O)c1c(C)c2cnc(Nc3ccc(N4CCNCC4)cn3)nc2n(C2CCCC2)c1=O + CC(C)NCC(C(=O)N1CCN(c2ncnc3c2C(C)CC3O)CC1)c1ccc(Cl)cc1
IC50 (second compound 0.1 µM): 69 nM
IC50 (second compound 0.316 µM): 11.7 nM
IC50 (second compound 1 µM): 2.65 nM
IC50 (second compound 3.16 µM): 1.68 nM
IC50 (second compound 10 µM): 2.82 nM
viability, T/C (second compound 0.1 µM, first compound 0.000949 µM): 90.5%
viability, T/C (second compound 0.1 µM, first compound 0.003 µM): 75%
viability, T/C (second compound 0.1 µM, first compound 0.00949 µM): 66.7%
viability, T/C (second compound 0.1 µM, first compound 0.03 µM): 53.4%
viability, T/C (second compound 0.1 µM, first compound 0.0949 µM): 47.8%
viability, T/C (second compound 0.1 µM, first compound 0.3 µM): 44.7%
viability, T/C (second compound 0.316 µM, first compound 0.000949 µM): 64.8%
viability, T/C (second compound 0.316 µM, first compound 0.003 µM): 62.6%
viability, T/C (second compound 0.316 µM, first compound 0.00949 µM): 51.2%
viability, T/C (second compound 0.316 µM, first compound 0.03 µM): 41.5%
viability, T/C (second compound 0.316 µM, first compound 0.0949 µM): 31.4%
viability, T/C (second compound 0.316 µM, first compound 0.3 µM): 34.1%
viability, T/C (second compound 1 µM, first compound 0.000949 µM): 56.9%
viability, T/C (second compound 1 µM, first compound 0.003 µM): 49.6%
viability, T/C (second compound 1 µM, first compound 0.00949 µM): 36.6%
viability, T/C (second compound 1 µM, first compound 0.03 µM): 33.3%
viability, T/C (second compound 1 µM, first compound 0.0949 µM): 27.8%
viability, T/C (second compound 1 µM, first compound 0.3 µM): 29.6%
viability, T/C (second compound 3.16 µM, first compound 0.000949 µM): 56.2%
viability, T/C (second compound 3.16 µM, first compound 0.003 µM): 45.1%
viability, T/C (second compound 3.16 µM, first compound 0.00949 µM): 31.6%
viability, T/C (second compound 3.16 µM, first compound 0.03 µM): 34.4%
viability, T/C (second compound 3.16 µM, first compound 0.0949 µM): 23.5%
viability, T/C (second compound 3.16 µM, first compound 0.3 µM): 20.8%
viability, T/C (second compound 10 µM, first compound 0.000949 µM): 61%
viability, T/C (second compound 10 µM, first compound 0.003 µM): 50.5%
viability, T/C (second compound 10 µM, first compound 0.00949 µM): 37.8%
viability, T/C (second compound 10 µM, first compound 0.03 µM): 30.5%
viability, T/C (second compound 10 µM, first compound 0.0949 µM): 26.9%
viability, T/C (second compound 10 µM, first compound 0.3 µM): 21%

CC(C)n1nc(-c2ccc3oc(N)nc3c2)c2c(N)ncnc21 + CC(C)NCC(C(=O)N1CCN(c2ncnc3c2C(C)CC3O)CC1)c1ccc(Cl)cc1
IC50 (second compound 0.1 µM): 78.9 nM
IC50 (second compound 0.316 µM): > 100 nM
IC50 (second compound 1 µM): > 100 nM
IC50 (second compound 3.16 µM): > 100 nM
IC50 (second compound 10 µM): > 100 nM
viability, T/C (second compound 0.1 µM, first compound 0.000316 µM): 88.9%
viability, T/C (second compound 0.1 µM, first compound 0.001 µM): 90.7%
viability, T/C (second compound 0.1 µM, first compound 0.00316 µM): 82.2%
viability, T/C (second compound 0.1 µM, first compound 0.01 µM): 69.3%
viability, T/C (second compound 0.1 µM, first compound 0.0316 µM): 61%
viability, T/C (second compound 0.1 µM, first compound 0.1 µM): 47.7%
viability, T/C (second compound 0.316 µM, first compound 0.000316 µM): 67.5%
viability, T/C (second compound 0.316 µM, first compound 0.001 µM): 73.5%
viability, T/C (second compound 0.316 µM, first compound 0.00316 µM): 75.5%
viability, T/C (second compound 0.316 µM, first compound 0.01 µM): 88.4%
viability, T/C (second compound 0.316 µM, first compound 0.0316 µM): 81%
viability, T/C (second compound 0.316 µM, first compound 0.1 µM): 52.2%
viability, T/C (second compound 1 µM, first compound 0.000316 µM): 59.4%
viability, T/C (second compound 1 µM, first compound 0.001 µM): 74.5%
viability, T/C (second compound 1 µM, first compound 0.00316 µM): 106%
viability, T/C (second compound 1 µM, first compound 0.01 µM): 97.2%
viability, T/C (second compound 1 µM, first compound 0.0316 µM): 71.2%
viability, T/C (second compound 1 µM, first compound 0.1 µM): 56.7%
viability, T/C (second compound 3.16 µM, first compound 0.000316 µM): 68.9%
viability, T/C (second compound 3.16 µM, first compound 0.001 µM): 98.9%
viability, T/C (second compound 3.16 µM, first compound 0.00316 µM): 106%
viability, T/C (second compound 3.16 µM, first compound 0.01 µM): 69.2%
viability, T/C (second compound 3.16 µM, first compound 0.0316 µM): 66.1%
viability, T/C (second compound 3.16 µM, first compound 0.1 µM): 63.9%
viability, T/C (second compound 10 µM, first compound 0.000316 µM): 77%
viability, T/C (second compound 10 µM, first compound 0.001 µM): 96.2%
viability, T/C (second compound 10 µM, first compound 0.00316 µM): 69.7%
viability, T/C (second compound 10 µM, first compound 0.01 µM): 45.4%
viability, T/C (second compound 10 µM, first compound 0.0316 µM): 53%
viability, T/C (second compound 10 µM, first compound 0.1 µM): 51.5%
